# Results reported in US20020177594A1, “Inhibitors of histone deacetylase” (priority 2001, published 2002).
row,SMILES,melting point [°C]
1,"O=C(CCCCCCSc1ccccc1)c1ncco1 [Example 102, 1-(1,3-oxazol-2-yl)-7-(phenylsulfanyl)-1-heptanone]",39 to 40
2,"O=C(CCCCCCS(=O)(=O)c1ccc2ccccc2c1)c1ncco1 [Example 105, 7-(2-naphthylsulfonyl)-1-(1,3-oxazol-2-yl)-1-heptanone]",75 to 76
3,"CNC(=O)C(=O)CCCCCCc1csc(-c2ccccc2)n1 [Example 196, N-methyl-2-oxo-8-(2-phenyl-1,3-thiazol-4-yl)octanamide]",70 to 72
4,"O=C(NCCCCCC(=O)c1ncco1)c1cc2ccccc2[nH]1 [Example 111, N-(6-(1,3-oxazol-2-yl)-6-oxohexyl)-1H-indole-2-carboxamide]",176 to 179
5,"CC(=O)C(=O)CCCCCCOc1ccc(-c2ccccc2)cc1 [Example 113, 9-((1,1′-biphenyl)-4-yloxy)-2,3-nonanedione]",110 to 111
6,"CNC(=O)C(=O)CCCCCO/N=C/c1ccc(-c2ccccc2)cc1 [Example 198, 7-((((1E)-1,1′-biphenyl-4-ylmethylidene)amino)oxy)-N-methyl-2-oxoheptanamide]",86 to 87
7,"CNC(=O)C(=O)CCCCCCS(=O)(=O)c1ccc2ccccc2c1 [Example 107, N-methyl-8-(2-naphthylsulfonyl)-2-oxooctanamide]",108 to 109
8,"O=C(NCCCCCC(=O)C(F)(F)F)OCC1c2ccccc2-c2ccccc21 [Example 89, 9H-fluoren-9-ylmethyl 7,7,7-trifluoro-6-oxoheptylcarbamate]",83 to 88
9,"CNC(=O)C(=O)CCCCCCSc1ccc2ccccc2c1 [Example 106, N-methyl-8-(2-naphthylsulfanyl)-2-oxooctanamide]",94 to 95
10,"CNC(=O)C(=O)CCCCCCc1cnc(-c2ccccc2)o1 [Example 199, N-methyl-2-oxo-8-(2-phenyl-1,3-oxazol-5-yl)octanamide]",78 to 80
11,"CNC(=O)C(=O)CCCCCCSc1nc(-c2ccccc2)cs1 [Example 183, N-methyl-2-oxo-8-((4-phenyl-1,3-thiazol-2-yl)thio)octanamide]",107 to 108
12,"CNC(=O)C(=O)CCCCCCSc1ccc(-c2ccccc2)cc1 [Example 108, 8-((1,1′-biphenyl)-4-ylsulfanyl)-N-methyl-2-oxooctanamide]",131 to 132
13,"O=C(CCCCCCSc1ccc2ccccc2c1)c1ncco1 [Example 104, 7-(2-naphthylsulfanyl)-1-(1,3-oxazol-2-yl)-1-heptanone]",65 to 66
14,"CNC(=O)C(=O)CCCCCCSc1nc2ccccc2s1 [Example 184, 8-(1,3-benzothiazol-2-ylthio)-N-methyl-2-oxooctanamide]",83 to 84
15,"CNC(=O)C(=O)CCCCCCc1csc(-c2ccc(Cl)cc2)n1 [Example 218, 8-(2-(4-chlorophenyl)-1,3-thiazol-4-yl)-N-methyl-2-oxooctanamide]",77 to 81
16,"O=C(CCCCCCS(=O)(=O)c1ccccc1)c1ncco1 [Example 103, 1-(1,3-oxazol-2-yl)-7-(phenylsulfonyl)-1-heptanone]",55 to 56
17,"O=C(NCCCCCCC(=O)c1ncco1)c1cc2ccccc2[nH]1 [Example 110, N-(7-(1,3-oxazol-2-yl)-7-oxoheptyl)-1H-indole-2-carboxamide]",153 to 156
18,"CNC(=O)C(=O)CCCCCCc1cnc(-c2ccc(Br)cc2)o1 [Example 217, 8-(2-(4-bromophenyl)-1,3-oxazol-5-yl)-N-methyl-2-oxooctanamide]",90 to 92
